Measurements taken from ChEMBL document CHEMBL1201862, “PubChem BioAssay data set” (2004).
Structures can show the parent of a compound that is named as a salt. Active and inactive are the calls of the source.

Tests used:
[1] = molecular target: T1, Heat shock factor protein 1 (Mus musculus, UniProt P38532); experiment: decrease of HSF1-responsive luciferase luminescence – cell-based, NIH3T3, dose retest, confirmation (AID 2382); format: functional;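 note: NIH3T3 fibroblasts with HSF1-driven luciferase reporter stressed by proteasome inhibitor MG132; luminescence from HSF1-driven luciferase expression after 8 hours of MG132 stress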
T1 sequence (P38532 whole entry): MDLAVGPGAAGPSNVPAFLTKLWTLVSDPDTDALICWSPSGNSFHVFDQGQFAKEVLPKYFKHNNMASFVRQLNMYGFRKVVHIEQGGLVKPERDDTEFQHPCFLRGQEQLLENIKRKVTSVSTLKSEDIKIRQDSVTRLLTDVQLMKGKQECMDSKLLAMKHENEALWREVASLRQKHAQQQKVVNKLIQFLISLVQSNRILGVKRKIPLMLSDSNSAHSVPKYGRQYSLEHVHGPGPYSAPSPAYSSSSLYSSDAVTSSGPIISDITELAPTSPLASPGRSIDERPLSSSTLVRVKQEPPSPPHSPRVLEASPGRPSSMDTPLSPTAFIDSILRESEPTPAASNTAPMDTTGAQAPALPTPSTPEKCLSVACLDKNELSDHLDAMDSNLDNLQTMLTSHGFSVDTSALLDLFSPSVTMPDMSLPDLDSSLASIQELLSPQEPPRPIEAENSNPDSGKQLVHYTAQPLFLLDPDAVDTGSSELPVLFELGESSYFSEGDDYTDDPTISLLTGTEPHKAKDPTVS

[2] = molecular target: Cytochrome P450 2C19 (Homo sapiens, UniProt P33261); experiment: Cytochrome panel assay with activity outcomes. Panel member name: p450-cyp2c19 Compounds with AC50 equal or less than 10 uM are considered active; format: functional; conditions: read-out: AC50
Chain of Cytochrome P450 2C19 (P33261 whole entry): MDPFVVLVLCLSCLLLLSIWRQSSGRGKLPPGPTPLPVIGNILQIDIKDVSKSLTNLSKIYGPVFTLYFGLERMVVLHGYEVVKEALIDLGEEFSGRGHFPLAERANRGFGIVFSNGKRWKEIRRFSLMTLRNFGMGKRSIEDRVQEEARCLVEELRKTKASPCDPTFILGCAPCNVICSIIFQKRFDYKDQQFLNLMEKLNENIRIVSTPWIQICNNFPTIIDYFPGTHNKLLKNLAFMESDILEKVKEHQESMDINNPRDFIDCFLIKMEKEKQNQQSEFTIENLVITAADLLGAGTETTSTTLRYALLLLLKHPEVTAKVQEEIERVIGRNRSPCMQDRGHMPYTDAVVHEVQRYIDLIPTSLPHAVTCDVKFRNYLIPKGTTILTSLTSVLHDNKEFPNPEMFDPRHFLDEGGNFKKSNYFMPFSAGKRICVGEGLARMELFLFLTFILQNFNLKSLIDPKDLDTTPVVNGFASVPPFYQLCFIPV

[3] = molecular target: T2, Cytochrome P450 1A2 (Homo sapiens, UniProt P05177);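 note: PubChem cytochrome P450 panel assay, CYP1A2 panel member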
T2 sequence (P05177 whole entry): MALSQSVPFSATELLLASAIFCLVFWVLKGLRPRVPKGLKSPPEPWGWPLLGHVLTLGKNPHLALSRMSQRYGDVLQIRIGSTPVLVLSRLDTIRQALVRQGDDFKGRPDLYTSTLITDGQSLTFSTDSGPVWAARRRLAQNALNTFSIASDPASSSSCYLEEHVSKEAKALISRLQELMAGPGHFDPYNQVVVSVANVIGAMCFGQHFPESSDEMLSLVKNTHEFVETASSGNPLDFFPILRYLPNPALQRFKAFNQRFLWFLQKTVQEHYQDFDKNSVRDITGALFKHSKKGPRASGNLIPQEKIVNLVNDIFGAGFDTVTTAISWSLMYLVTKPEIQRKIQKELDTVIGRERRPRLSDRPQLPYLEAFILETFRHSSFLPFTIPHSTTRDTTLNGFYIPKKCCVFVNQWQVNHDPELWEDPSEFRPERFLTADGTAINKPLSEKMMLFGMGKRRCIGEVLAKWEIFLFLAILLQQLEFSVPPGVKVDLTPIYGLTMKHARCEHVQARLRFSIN

[4] = molecular target: Cytochrome P450 2C9 (Homo sapiens, UniProt P11712)
Chain of Cytochrome P450 2C9 (P11712 whole entry): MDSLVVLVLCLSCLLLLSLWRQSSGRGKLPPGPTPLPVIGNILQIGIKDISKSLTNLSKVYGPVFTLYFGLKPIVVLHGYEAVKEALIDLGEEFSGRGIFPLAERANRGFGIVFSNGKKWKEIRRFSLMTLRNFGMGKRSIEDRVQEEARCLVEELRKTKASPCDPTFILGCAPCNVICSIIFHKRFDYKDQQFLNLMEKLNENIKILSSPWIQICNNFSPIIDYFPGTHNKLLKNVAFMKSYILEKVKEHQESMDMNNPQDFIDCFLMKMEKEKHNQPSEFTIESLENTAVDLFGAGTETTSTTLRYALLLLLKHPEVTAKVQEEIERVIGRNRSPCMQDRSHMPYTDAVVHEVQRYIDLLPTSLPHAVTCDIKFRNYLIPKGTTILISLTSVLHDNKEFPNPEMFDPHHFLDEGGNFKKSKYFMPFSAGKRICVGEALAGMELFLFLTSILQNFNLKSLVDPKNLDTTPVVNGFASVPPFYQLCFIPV

[5] = molecular target: T3, Replicative DNA helicase DnaB (Mycobacterium tuberculosis, UniProt P9WMR3); experiment: DnaB intein splicing inhibitors, dose response, biochemical, cell-free fluorescence (AID 449749); format: functional
T3 sequence (P9WMR3 whole entry): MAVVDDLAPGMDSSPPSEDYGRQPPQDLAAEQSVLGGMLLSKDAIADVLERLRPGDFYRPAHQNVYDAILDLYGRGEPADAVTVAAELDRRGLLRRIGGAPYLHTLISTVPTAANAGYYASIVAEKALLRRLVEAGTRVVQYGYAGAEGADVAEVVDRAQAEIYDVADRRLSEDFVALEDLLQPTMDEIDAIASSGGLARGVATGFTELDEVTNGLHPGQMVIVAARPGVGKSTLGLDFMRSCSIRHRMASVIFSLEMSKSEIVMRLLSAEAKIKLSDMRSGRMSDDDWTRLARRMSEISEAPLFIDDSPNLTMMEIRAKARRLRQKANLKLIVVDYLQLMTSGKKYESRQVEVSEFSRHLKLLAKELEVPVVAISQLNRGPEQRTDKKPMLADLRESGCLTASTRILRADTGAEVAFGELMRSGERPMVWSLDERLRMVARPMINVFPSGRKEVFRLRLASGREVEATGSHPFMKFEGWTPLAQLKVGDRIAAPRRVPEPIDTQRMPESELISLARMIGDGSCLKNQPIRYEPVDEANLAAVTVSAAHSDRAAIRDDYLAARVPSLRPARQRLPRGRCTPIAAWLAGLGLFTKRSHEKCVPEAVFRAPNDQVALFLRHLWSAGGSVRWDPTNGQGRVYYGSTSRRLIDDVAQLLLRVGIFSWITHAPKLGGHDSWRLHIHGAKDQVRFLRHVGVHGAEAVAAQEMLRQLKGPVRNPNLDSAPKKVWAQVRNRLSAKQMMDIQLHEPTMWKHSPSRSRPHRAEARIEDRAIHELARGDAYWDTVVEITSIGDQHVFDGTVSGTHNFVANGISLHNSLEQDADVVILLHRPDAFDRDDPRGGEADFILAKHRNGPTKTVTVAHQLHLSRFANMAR

[6] = molecular target: T4, Protein RecA (Mycobacterium tuberculosis, UniProt P9WHJ3); experiment: Fluorescence Cell-Free Homogeneous Dose Retest to Identify Inhibitors of RecA-Intein Splicing Activity. [Related pubchem assays (depositor defined):AID2097, AID2223, AID489010, AID492950]; format: functional
T4 sequence (P9WHJ3 whole entry): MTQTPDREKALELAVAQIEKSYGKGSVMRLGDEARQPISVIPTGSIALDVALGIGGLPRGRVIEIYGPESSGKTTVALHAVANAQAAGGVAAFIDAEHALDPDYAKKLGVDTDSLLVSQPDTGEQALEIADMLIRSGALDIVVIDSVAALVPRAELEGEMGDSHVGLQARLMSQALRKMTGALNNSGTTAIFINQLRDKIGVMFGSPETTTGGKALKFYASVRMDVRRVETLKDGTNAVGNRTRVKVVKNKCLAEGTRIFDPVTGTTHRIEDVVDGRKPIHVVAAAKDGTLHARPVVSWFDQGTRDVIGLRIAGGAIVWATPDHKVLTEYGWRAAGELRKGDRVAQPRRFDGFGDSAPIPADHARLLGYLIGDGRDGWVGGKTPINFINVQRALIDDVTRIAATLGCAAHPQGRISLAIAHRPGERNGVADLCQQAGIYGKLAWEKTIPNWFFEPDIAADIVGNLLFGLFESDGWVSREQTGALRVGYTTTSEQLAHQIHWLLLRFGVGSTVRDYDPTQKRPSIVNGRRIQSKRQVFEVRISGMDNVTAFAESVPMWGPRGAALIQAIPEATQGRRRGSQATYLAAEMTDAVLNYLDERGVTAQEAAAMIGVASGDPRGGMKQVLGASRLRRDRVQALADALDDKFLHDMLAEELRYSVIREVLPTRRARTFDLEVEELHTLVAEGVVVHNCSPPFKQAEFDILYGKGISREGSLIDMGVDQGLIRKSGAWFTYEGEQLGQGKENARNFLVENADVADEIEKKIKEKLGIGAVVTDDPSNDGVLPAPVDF

[7] = fluconazole-exposed Candida albicans growth modulators – fluorescence, retest, confirmation (AID 2467); format: functional, cell-based
[8] = NIH-3T3 fibroblast cytotoxicity, dose response, cytotoxicity control, cell-based, fluorescence, Alamar Blue, secondary assay (AID 2327); format: functional;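 note: NIH-3T3 mouse fibroblasts cultured with fluconazole at 8 µg/mL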
[9] = tested on: Streptococcus sp. 'group A'; experiment: Streptococcus pyogenes SK(-)GAS viability under kanamycin – luminescence, BacTiterGlo, confirmation, counter-screen for streptokinase expression inhibitor project, dose response (AID 1900); format: functional, organism-based
[10] = tested on: Streptococcus; experiment: GAS UMAA2166 growth inhibition – luminescence, BacTiterGlo, counter-screen for streptokinase expression inhibitor project, dose response (AID 1915); format: functional, organism-based; conditions: read-out: EC50;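 note: potency for reduction of bacterial viability or growth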
[11] = molecular target: Cytochrome P450 3A4 (Homo sapiens, UniProt P08684);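 note: CYP3A4 tested as one member of a cytochrome P450 panel screen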
Chain of Cytochrome P450 3A4 (P08684 whole entry): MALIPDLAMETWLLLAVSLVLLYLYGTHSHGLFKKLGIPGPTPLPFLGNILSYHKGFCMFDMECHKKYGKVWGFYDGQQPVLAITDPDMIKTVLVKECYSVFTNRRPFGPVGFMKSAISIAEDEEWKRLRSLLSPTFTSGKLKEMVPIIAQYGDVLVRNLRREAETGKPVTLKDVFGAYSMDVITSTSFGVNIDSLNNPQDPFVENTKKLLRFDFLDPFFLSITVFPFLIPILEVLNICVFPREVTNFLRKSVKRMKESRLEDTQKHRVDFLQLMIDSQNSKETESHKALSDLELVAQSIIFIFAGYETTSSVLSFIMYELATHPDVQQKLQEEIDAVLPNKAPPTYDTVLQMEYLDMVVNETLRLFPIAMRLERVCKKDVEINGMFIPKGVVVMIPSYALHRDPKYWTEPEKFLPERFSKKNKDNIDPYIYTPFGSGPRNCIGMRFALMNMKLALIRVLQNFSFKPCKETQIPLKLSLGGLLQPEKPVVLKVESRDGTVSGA

## CCN1CCN(c2cc(C)c3cc(NC(=S)N4CCCC(C)C4)ccc3n2)CC1 (configuration not stated)
[1]
  EC50: 11 µM (active)

## O=C(O)c1cc(S(=O)(=O)Nc2ccc3c(c2)OCCO3)c(Cl)cc1Cl
[1]
  EC50: 2.54 µM (active)

## Cc1noc(NS(=O)(=O)c2ccc(N3Cc4ccccc4C3=O)cc2)c1C
[1]
  EC50: > 195 µM (not active)

## COC(=O)N1CCC[C@@]2(CCN(C(c3ccccc3)c3ccccc3)C2)C1
[2]
  AC50: 39.8 µM (inconclusive)
[3]
  AC50: 12.6 µM (inconclusive)
[4]
  AC50: 25.1 µM (inconclusive)

## CCNc1ncc2nc(CCc3ccccc3)c(=O)n(Cc3ccc(F)cc3)c2n1
[3]
  AC50: 3.16 µM (inconclusive)

## COc1ccccc1N(C)S(=O)(=O)c1ccc(C(=O)NC(C)c2ccccc2)cc1 (configuration not stated)
[1]
  EC50: > 195 µM (not active)

## O=C(CC1C(=O)NCCN1Cc1ccccc1F)NC1CCCCCC1 (configuration not stated)
[1]
  EC50: 24.1 µM (active)

## COc1ccc(-c2csc(Nc3ccc(O)cc3)n2)cc1
[5]
  AC50: 37.2 µM (active)
[6]
  EC50: 123 µM (active)

## O=C(Nc1ccccc1)OCN1C(=O)c2ccccc2C1=O
[7]
  EC50: > 38 µM (not active)
[8]
  EC50: > 150 µM (inactive)

## Cc1ccc2nc(O)c(CN(C(=O)c3cccc([N+](=O)[O-])c3)C(C)C)cc2c1
[1]
  EC50: > 195 µM (not active)

## COc1ccc(C(=O)NCCN2CCOCC2)c(OC)c1OC
[7]
  EC50: > 38 µM (not active)
[8]
  EC50: > 150 µM (inactive)

## COc1cccc2c(=O)n(CC(=O)NCCc3ccccc3)ccc12
[1]
  EC50: > 195 µM (not active)

## O=C(CCS(=O)(=O)c1cccc2nsnc12)N1CCN(C(=O)c2ccco2)CC1
[7]
  EC50: > 38 µM (not active)
[8]
  EC50: > 160 µM (inactive)

## CC1=NNC(=O)C1C(c1cccc(O)c1)C(C#N)C#N (configuration not stated)
[5]
  AC50: 28.3 µM (active)
[6]
  EC50: 12.7 µM (active)

## CC(C)c1ccc(NC(=O)Nc2cc3sccc3n2C)cc1
[1]
  EC50: > 195 µM (not active)

## Cc1ccc2c(ccc[n+]2CC(=O)c2ccccc2)c1
[7]
  EC50: > 38 µM (not active)
[8]
  EC50: > 150 µM (inactive)

## Cc1oc(-c2cccs2)nc1CN1CCN(Cc2ccc(F)c(F)c2)C(CCO)C1 (configuration not stated)
[7]
  EC50: > 38 µM (not active)
[8]
  EC50: > 150 µM (inactive)

## O=C(NC1C(=O)NNC1c1ccc(Cl)cc1)c1ccc(F)cc1 (configuration not stated)
[5]
  AC50: 13.1 µM (active)
[6]
  EC50: 4.94 µM (active)

## CC(=O)NC(=S)c1c(N)n(Cc2ccccc2)c(=O)n(C)c1=O
[5]
  AC50: > 380 µM (inactive)
[6]
  EC50: > 380 µM (inconclusive)

## O=C(O)Cn1c(=O)c2c3c(sc2n(Cc2ccc(Cl)cc2Cl)c1=O)CCCC3
[1]
  EC50: > 195 µM (not active)

## Cc1cc(C(=O)c2ccccc2)c(NC(=O)CCl)s1
[5]
  AC50: 14.2 µM (active)
[6]
  EC50: 2.83 µM (active)

## COc1ccccc1CNCC(O)(c1ccc(Cl)cc1)c1ccc(Cl)cc1
[3]
  AC50: 10 µM (inconclusive)

## Cc1cc(S(=O)(=O)N2CCCC2)ccc1OCC(=O)NCc1ccccc1
[1]
  EC50: > 195 µM (not active)

## Cc1cc(C)c(C#N)c(SCC(=O)NC(C)(C)C)n1
[1]
  EC50: > 195 µM (not active)

## Cc1cccc(-n2nc(C(=O)c3ccco3)cc(-c3nc4ccccc4[nH]3)c2=N)c1
[7]
  EC50: > 38 µM (not active)
[8]
  EC50: > 160 µM (inactive)
[9]
  EC50: 2.49 µM (active)
[10]
  EC50: 5.95 µM (active)

## COCC(=O)N1CCC2(CC1)CN(Cc1cc(C(F)(F)F)cc(C(F)(F)F)c1)C2
[2]
  AC50: 20 µM (inconclusive)
[3]
  AC50: 25.1 µM (inconclusive)
[4]
  AC50: 12.6 µM (inconclusive)

## CCCCSC1=C(C#N)C(c2ccccc2C)CC(=O)N1 (configuration not stated)
[1]
  EC50: > 195 µM (not active)

## CSc1ccc(/C=C/C(=O)Nc2ccccc2)cc1
[7]
  EC50: > 38 µM (not active)
[8]
  EC50: > 150 µM (inactive)

## O=C(CCCCCN1C(=O)c2ccccc2C1=O)NCc1ccccn1
[3]
  AC50: 14.1 µM (inconclusive)
[11]
  AC50: 25.1 µM (inconclusive)
[4]
  AC50: 31.6 µM (inconclusive)

## CC(C)CNS(=O)(=O)c1ccc(CCC(=O)N2CCOCC2)cc1
[1]
  EC50: > 195 µM (not active)

## COC(=O)c1ccc2c(=O)n(-c3ccccc3)c(=S)[nH]c2c1
[1]
  EC50: > 195 µM (not active)

## Clc1cccc(N/N=C/c2ccncc2)c1
[7]
  EC50: > 38 µM (not active)
[8]
  EC50: > 160 µM (inactive)

## CCOC(=O)C(CC)/C(C)=N\NC(=O)c1ccccc1O (configuration not stated)
[7]
  EC50: > 38 µM (not active)
[8]
  EC50: > 160 µM (inactive)

## COCCCC/C(=N\OCCN)c1ccc(C(F)(F)F)cc1 [FLUVOXAMINE MALEATE]
[1]
  EC50: > 195 µM (not active)

## CN(C)CCCc1cc(C(=O)Nc2ccc(-c3ccncc3)cc2)ccc1O [GR-55562]
[2]
  AC50: 31.6 µM (inconclusive)
[3]
  AC50: 39.8 µM (inconclusive)
[11]
  AC50: 1.26 µM (inconclusive)

## CN[C@H](CC(=O)O)C(=O)O [N-METHYL-D-ASPARTIC ACID (NMDA)]
[3]
  AC50: 39.8 µM (inconclusive)

## CCCCCCCCCCCCCCCC[N+](C)(C)CCN(Cc1ccc(OC)cc1)c1ncccn1 [THONZONIUM]
[3]
  AC50: 20 µM (inconclusive)
[4]
  AC50: 15.8 µM (inconclusive)
